20 compounds from EP1984353B1, “AURORA KINASE MODULATORS AND METHOD OF USE” (Amgen, Inc, priority 2006, dated 2007) can be followed below.

Test [1] concerns the target T1, AuroraB (Homo sapiens, UniProt Q96GD4).
T1 construct: 20 µL of AuroraB FL His; His
Nature of the test: AuroraB Homogeneous Time Resolved Fluorescent (HTRF) kinase assay. The test is classed as biochemical. As to conditions: average, read-out: AurB_ _IC50_IP (Avg). Here is the method: AuroraB-Homogeneous Time Resolved Fluorescent (HTRF) Kinase Assay:
The AuroraB HTRF assay begins with AuroraB in the presence of ATP phosphorylating the biotinylated peptide Histone H3. The reaction incubates for about 90 min. the reaction is quentched by addition of detection reagents, which stop the reaction by diluting out the enzyme and chelating the metals due to the presence of EDTA. After addition, the assay is incubated for about 60 min to allow detection reagents to equilibrate.
The AuroraB HTRF assay comprises 1 µL of compound in 100% DMSO, 20 µL of ATP and biotinylated Histone H3, and 20 µL of AuroraB FL His for a final volume of 41 µL. The final concentration of Histone H3 is 0.1 µM. The final concentration of ATP is 23 µM (Km(app) = 23 µM+/-2.6) and the final concentration of AuroraB is 400 pM. Buffer conditions are as follows: 50mM HEPES pH 7.5, 5mM NaCl, 0.5mM MgCl, 0.5mM MnCl, 2mM DTT, 0.05% BSA.
The assay is quenched and stopped with 160 µL of detection reagent. Detection reagents are as follows: Buffer made of 50mM Tris, pH 7.5, 100mM NaCl, 3mM EDTA, 0.05% BSA, 0.1% Tween20. Added to this buffer prior to reading is Steptavidin allophycocyanin (SA-APC) at a final conc in the assay of 0.001 mg/mL, and europilated anti-phosphoHistoneH3 Ab (Eu-anti-HisH3) at a final conc of 0.064 nM.
The assay plate is read in either a Discovery or a RubyStar. The eu-anti-HisH3 is excited at 320 nm and emits at 615 nm to excite the SA-APC which in turn emits at 655 nm. The ratio of SA-APC at 655 nm (excited due to close proximity to the Eu-anti-HisH3 because of phosphorylation of the peptide) to free Eu-anti-HisH3 at 615 nm will give substrate phosphorylation.

In test [2] the target is T2, AuroraA-TPX2 (Homo sapiens, UniProt O14965).
T2 construct: 20 µL of AuroraA-TPX2 KD GST; GST
T2 sequence (O14965 133-383 limits assumed): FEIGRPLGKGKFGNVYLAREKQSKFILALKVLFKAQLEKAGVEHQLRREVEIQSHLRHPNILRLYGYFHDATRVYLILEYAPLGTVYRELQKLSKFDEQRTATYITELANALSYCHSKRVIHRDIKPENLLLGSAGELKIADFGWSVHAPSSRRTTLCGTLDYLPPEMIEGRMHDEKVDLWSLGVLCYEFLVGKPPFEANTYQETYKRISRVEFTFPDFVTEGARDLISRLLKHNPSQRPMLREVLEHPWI
T2 sequence (Q9ULW0 1-43 partner limits assumed): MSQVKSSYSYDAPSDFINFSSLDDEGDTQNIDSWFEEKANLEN
Nature of the test: AuroraA-TPX2 Homogeneous Time Resolved Fluorescent (HTRF) kinase assay. As to conditions: average, read-out: AurA/TP X2_ IC50_IP (Avg). The test is classed as biochemical. The method, then:
AuroraA-TPX2-Homogeneous Time Resolved Fluorescent (HTRF) Kinase Assay:
The Aurora-A HTRF assay begins with Aurora-A in the presence of ATP phosphorylating the biotinylated peptide PLK. The reaction incubates for about 120 min. Detection reagents are added to quench the reaction. These agents stop the reaction by diluting out the enzyme and chelating the metals due to the presence of EDTA. After addition, the assay is incubated overnight to allow the detection reagents to equilibrate.
The final concentration of PLK is about 1 µM. […] Buffer conditions are as follows: 60mM HEPES pH 7.5, 25mM NaCl, 10mM MgCl, 2mM DTT, 0.05% BSA.
The assay is quenched and stopped with 160 µL, of detection reagent. Detection reagents are as follows: Buffer made of 50mM Tris, pH 7.5, 100mM NaCl, 3mM EDTA, 0.05% BSA, 0.1% Tween20. Added to this buffer prior to reading is Steptavidin allophycocyanin (SA-APC) at a final conc in the assay of 0.0005 mg/mL, and europilated anti-phosphoPLK Ab (Eu-anti-PLK) at a final conc of 0.02 nM.
The assay plate is read in either a Discovery or a RubyStar. The eu-anti-PLK is excited at 320 nm and emits at 615 nm to excite the SA-APC which in turn emits at 655 nm.
(TR-FRET usually uses a lanthanide donor and a delayed reading to cut background.)

Setting [3] is: given as numbers, unit inferred.

Read-outs that look alike come from different tables or passages of the source.

T1 sequence (Q96GD4 whole entry): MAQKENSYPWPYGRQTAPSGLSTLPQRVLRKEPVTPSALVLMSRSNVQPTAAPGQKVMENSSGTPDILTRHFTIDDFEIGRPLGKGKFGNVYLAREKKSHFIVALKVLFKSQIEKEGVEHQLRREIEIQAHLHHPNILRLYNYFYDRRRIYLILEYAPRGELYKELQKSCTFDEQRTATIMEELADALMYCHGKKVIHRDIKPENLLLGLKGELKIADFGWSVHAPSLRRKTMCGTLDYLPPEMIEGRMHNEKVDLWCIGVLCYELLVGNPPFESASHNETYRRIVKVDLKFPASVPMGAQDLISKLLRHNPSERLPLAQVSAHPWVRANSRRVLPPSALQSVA

Regarding `Nc1nccc(-c2ccccc2Oc2ccc(Nc3nnc(-c4ccccc4)c4ccccc34)cc2)n1` [compound 254, N-(4-((2-(2-amino-4-pyrimidinyl)phenyl)oxy)phenyl)-4-phenyl-1-phthalazinamine], the IC50 in test [1] (given as class symbols) and in test [2] (given as class symbols) was at most 100 nM each time.

`CNc1cc(-c2cccnc2Nc2ccc(Nc3nnc(-c4ccccc4)c4ccccc34)cc2)ncn1` [compound 255, N-(3-(6-(methylamino)-4-pyrimidinyl)-2-pyridinyl)-N'-(4-phenyl-1-phthalazinyl)-1,4-benzenediamine]: the IC50 in test [1] (given as class symbols) is at most 100 nM; in test [2] (given as class symbols), 100 to 500 nM.

Turning to `C[C@@H](O)c1ccc(-c2nnc(Nc3ccc(Oc4ncccc4-c4ccnc(N)n4)cc3)c3ccccc23)cc1` [compound 256, (1R)-1-(4-(4-((4-((3-(2-amino-4-pyrimidinyl)-2-pyridinyl)oxy)phenyl)amino)-1-phthalazinyl)phenyl)ethanol], the figures for the IC50 in test [1] (setting [3]) and in test [2] (setting [3]) were 1.8 nM and 149 nM, respectively.

For `C[C@H](O)c1ccc(-c2nnc(Nc3ccc(Oc4ncccc4-c4ccnc(N)n4)cc3)c3ccccc23)cc1` [compound 257, (1S)-1-(4-(4-((4-((3-(2-amino-4-pyrimidinyl)-2-pyridinyl)oxy)phenyl)amino)-1-phthalazinyl)phenyl)ethanol], the IC50 in test [1] (given as class symbols) and in test [2] (given as class symbols) was at most 100 nM in each case.

As to `CN1C[C@@H]2C[C@H]1CN2c1nnc(Nc2ccc(Oc3ncccc3-c3ccnc(N)n3)cc2)c2ccccc12` [compound 258, N-(4-((3-(2-amino-4-pyrimidinyl)-2-pyridinyl)oxy)phenyl)-4-((1S,4S)-5-methyl-2,5-diazabicyclo[2.2.1]hept-2-yl)-1-phthalazinamine], the IC50 in test [1] (given as class symbols) fell in the range of 100 to 500 nM; in test [2] (given as class symbols), 500 to 2500 nM.

Take `Nc1nccc(-c2cccnc2Oc2ccc(Nc3ncc(-c4ccc(Cl)cc4)c4ccccc34)cc2)n1` [compound 265, N-(4-((3-(2-amino-4-pyrimidinyl)-2-pyridinyl)oxy)phenyl)-4-(4-chlorophenyl)-1-isoquinolinamine]: the IC50 in test [1] (given as class symbols) and in test [2] (given as class symbols) was at most 100 nM each time.

As to `Nc1nccc(-c2cccnc2Oc2ccc(Nc3ncc(-c4ccccc4)c4ccccc34)cn2)n1` [compound 266, N-(6-((3-(2-amino-4-pyrimidinyl)-2-pyridinyl)oxy)-3-pyridinyl)-4-phenyl-1-isoquinolinamine], the IC50 in test [1] (given as class symbols) and in test [2] (given as class symbols) was at most 100 nM throughout.

Turning to `c1ccc(-c2nnc(Nc3ccc(Oc4ncccc4-c4ccnc(NCCCN5CCCCC5)n4)nc3)c3ccccc23)cc1` [compound 267, 4-phenyl-N-(6-((3-(2-((3-(1-piperidinyl)propyl)amino)-4-pyrimidinyl)-2-pyridinyl)oxy)-3-pyridinyl)-1-phthalazinamine], the IC50 came out at 10.4 nM in test [1] (setting [3]) and 96.4 nM in test [2] (setting [3]).

Consider `c1ccc(-c2nnc(Nc3ccc(Oc4ncccc4-n4ccnc4)cc3)c3ccccc23)cc1` [compound 268, N-(4-((3-(1H-imidazol-1-yl)-2-pyridinyl)oxy)phenyl)-4-phenyl-1-phthalazinamine], for which the IC50 in test [1] (given as class symbols) and in test [2] (given as class symbols) was 500 to 2500 nM throughout.

On to `CC(C)c1nnc(Nc2ccc(Oc3ncccc3-c3ccnc(N)n3)nc2)c2ccccc12` [compound 269, N-(6-((3-(2-amino-4-pyrimidinyl)-2-pyridinyl)oxy)-3-pyridinyl)-4-(1-methylethyl)-1-phthalazinamine], for which the IC50 in test [1] (given as class symbols) and in test [2] (given as class symbols) was at most 100 nM each time.

Consider `Cc1cccc(-c2nnc(Nc3ccc(Oc4ncccc4-c4ccnc(N)n4)nc3)c3ccccc23)n1` [compound 270, N-(6-((3-(2-amino-4-pyrimidinyl)-2-pyridinyl)oxy)-3-pyridinyl)-4-(6-methyl-2-pyridinyl)-1-phthalazinamine], for which the IC50 in test [1] (given as class symbols) and in test [2] (given as class symbols) was at most 100 nM throughout.

For `Nc1nccc(-c2cccnc2Oc2ccc(Nc3nnc(C4CCCCC4)c4ccccc34)cc2)n1` [compound 272, N-(4-((3-(2-amino-4-pyrimidinyl)-2-pyridinyl)oxy)phenyl)-4-cyclohexyl-1-phthalazinamine], the IC50 stood at 5.5 nM in test [1] (setting [3]) and 19.7 nM in test [2] (setting [3]).

For the compound `CC(C)c1nnc(Nc2ccc(Oc3ncccc3-c3ccnc(N)n3)cc2)c2ccccc12` [compound 273, N-(4-((3-(2-amino-4-pyrimidinyl)-2-pyridinyl)oxy)phenyl)-4-(1-methylethyl)-1-phthalazinamine], the IC50 in test [1] (given as class symbols) is at most 100 nM; in test [2] (given as class symbols), 100 to 500 nM.

Take `Cc1cccc(-c2nnc(Nc3ccc(Oc4ncccc4-c4ccnc(NCCCN5CCN(C)CC5)n4)cc3)c3ccccc23)n1` [compound 275, N-(4-((3-(2-((3-(4-methyl-1-piperazinyl)propyl)amino)-4-pyrimidinyl)-2-pyridinyl)oxy)phenyl)-4-(6-methyl-2-pyridinyl)-1-phthalazinamine]: the IC50 in test [1] (setting [3]) worked out at 13.4 nM; in test [2] (setting [3]), 94.9 nM.

As to `Cc1cccc(-c2nnc(Nc3ccc(Oc4ncccc4-c4ccnc(NCCCN5CCCCC5)n4)cc3)c3ccccc23)n1` [compound 276, 4-(6-methyl-2-pyridinyl)-N-(4-((3-(2-((3-(1-piperidinyl)propyl)amino)-4-pyrimidinyl)-2-pyridinyl)oxy)phenyl)-1-phthalazinamine], the IC50 in test [1] (given as class symbols) was at most 100 nM; in test [2] (given as class symbols) it was 100 to 500 nM.

With `Cc1cccc(-c2nnc(Nc3ccc(Oc4ncccc4-c4ccnc(NCCCN5CCNCC5)n4)cc3)c3ccccc23)n1` [compound 277, 4-(6-methyl-2-pyridinyl)-N-(4-((3-(2-((3-(1-piperazinyl)propyl)amino)-4-pyrimidinyl)-2-pyridinyl)oxy)phenyl)-1-phthalazinamine], the results for the IC50 in test [1] (setting [3]) and in test [2] (setting [3]) were 2.7 nM and 126 nM, respectively.

Consider `c1ccc(-c2nnc(Nc3ccc(Oc4ncccc4-c4ccnc5c4CCCN5)cc3)c3ccccc23)cc1` [compound 283, 4-phenyl-N-(4-((3-(5,6,7,8-tetrahydro-1,8-naphthyridin-4-yl)-2-pyridinyl)oxy)phenyl)-1-phthalazinamine], for which the figures for the IC50 in test [1] (given as class symbols) and in test [2] (given as class symbols) were 100 to 500 nM and 500 to 2500 nM, respectively.

With `Cc1csc(-c2nnc(Nc3ccc(Oc4ncccc4-c4ccnc5c4CCCN5)cc3)c3ccccc23)n1` [compound 284, 4-(4-methyl-1,3-thiazol-2-yl)-N-(4-((3-(5,6,7,8-tetrahydro-1,8-naphthyridin-4-yl)-2-pyridinyl)oxy)phenyl)-1-phthalazinamine], the IC50 in test [1] (setting [3]) is 191 nM; in test [2] (setting [3]), 167 nM.

Turning to `Cc1cc(-c2ccccc2)nnc1Nc1ccc(Oc2ncccc2-c2ccnc3c2CCCN3)cc1` [compound 285, 4-methyl-6-phenyl-N-(4-((3-(5,6,7,8-tetrahydro-1,8-naphthyridin-4-yl)-2-pyridinyl)oxy)phenyl)-3-pyridazinamine], the IC50 in test [1] (given as class symbols) fell in the range of 100 to 500 nM; in test [2] (given as class symbols) it was 500 to 2500 nM.

With `c1ccc(-c2nnc(Nc3ccc(Oc4ncccc4-c4ccnc5c4CCN5)cc3)c3ccccc23)cc1` [compound 287, N-(4-((3-(2,3-dihydro-1H-pyrrolo[2,3-b]pyridin-4-yl)-2-pyridinyl)oxy)phenyl)-4-phenyl-1-phthalazinamine], the IC50 was found to be 10.3 nM in test [1] (setting [3]) and 83.3 nM in test [2] (setting [3]).
